Structures can show the parent of a compound that is named as a salt. Where two headings read alike, the source gives them in different places.

One assay addresses rhCatC (Homo sapiens (Human), UniProt P53634). In words: In vitro enzyme activity experiment of rhCatC (AMC fluorescence assay). The assay is classed as biochemical. The following applies: rhCatC enzyme, substrate H-Gly-Arg-AMC; read-out: Biological activity IC50. As to the method:
The in vitro inhibitory effect of compounds and positive control on rhCatC enzyme activity was evaluated by AMC fluorescence assay. rhCatC can catalyze the reaction of substrate peptide H-Gly-Arg-AMC, and release AMC to generate fluorescence. […] The compound was diluted with DMSO to a 384-well echo plate at a concentration of 100× of the highest concentration at the beginning of the experiment. 0.2 μL of the diluted compound was pipetted to a black-bottomed 384-well reaction plate for later use. The negative control well was DMSO. • 2) Activation of rhCatC: RhCatC and rhCatL were added to the activation buffer to obtain a final concentration of rhCatC of 100 μg/mL and a final concentration of rhCatL of 20 μg/mL, and incubated at room temperature for 1 hour. • 3) Enzyme activity reaction: Activated rhCatC was diluted to 0.4 μg/mL with the reaction buffer. The solution was added to the black-bottom 384-well reaction plate ([…]). 10 μL of the buffer was added for the vehicle control group. The plate containing compounds in its wells was incubated at room temperature for 30 minutes.
The RLU data was read, the inhibition rate was calculated, and the IC50 value was calculated according to the fitting curve of concentration and inhibition rate.

The target of another assay is CatC (Homo sapiens (Human), UniProt P53634). In words: In vitro CatC cell activity experiment in U937 cell line. The assay is classed as cell-based. Here is the method: The U937 cell line was resuscitated and passed for about two generations, and the cell line with good growth status was selected. The cell suspension was transferred into a centrifuge tube, and centrifuged at 800 to 1000 rpm for 3 to 5 minutes. The supernatant was discarded. An appropriate volume of culture medium was added to the centrifuge tube, which was gently pipetted to resuspend the cells evenly. The cells were counted using a Vi-Cell XR cell counter. The cell suspension was adjusted to an appropriate concentration. The cell suspension was added into a 384-well plate ([…]). The compound was formulated into a 10 mM solution with DMSO. The compound was diluted with DMSO to obtain a 1 mM solution, and a semi-logarithmi dilution was carried out by HPD300 with DMSO to obtain 10 concentrations. Gly-Phe-AFC was formulated into a 35 mM solution with DMSO and divided. […] After adding the compounds and incubating for 1 hour in an incubator, substrate-AFC was added (12.5 μL was added to the plate). The plate was incubated for 30 minutes and read. […] XLFit was used to draw the drug efficacy inhibition rate curve and calculate the IC50 value. 4-parameter model [fit=(A+((B−A)/(1+((C/x)^D))))] was used.

[1] abbreviates: U937 cells, CatC cell activity, read-out: Biological activity IC50.

Sequence of rhCatC (P53634 25-134): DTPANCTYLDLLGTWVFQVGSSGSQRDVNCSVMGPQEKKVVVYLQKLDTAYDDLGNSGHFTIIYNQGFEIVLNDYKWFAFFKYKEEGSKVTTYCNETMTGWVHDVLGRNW
Sequence of rhCatC (P53634 231-394): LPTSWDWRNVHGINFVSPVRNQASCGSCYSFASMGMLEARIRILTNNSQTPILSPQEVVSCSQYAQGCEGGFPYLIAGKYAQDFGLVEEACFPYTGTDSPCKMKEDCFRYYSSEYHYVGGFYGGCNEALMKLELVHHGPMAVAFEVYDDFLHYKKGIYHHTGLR
Sequence of rhCatC (P53634 395-463): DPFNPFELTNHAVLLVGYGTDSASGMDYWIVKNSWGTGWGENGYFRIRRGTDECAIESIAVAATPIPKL

As a reminder, the IC50 is the concentration that gives 50% inhibition. Turning to `N#CC(Cc1ccc2c(c1)CCc1ccccc1-2)NC(=O)C1(N)CCOCC1` (centres unmarked) [Compound 7, 4-Amino-N-(1-cyano-2-(9,10-dihydrophenanthren-2-yl)ethyl)tetrahydro-2H-pyran-4-carboxamide], the IC50 at rhCatC was 6.8 nM; at CatC (setting [1]), 10.2 nM.
In the same order, the values of `N#C[C@H](Cc1ccc2c(c1)CCc1ccccc1-2)NC(=O)[C@@H]1CNCCCO1` [Compound 8, (S)—N—((S)-1-Cyano-2-(9,10-dihydrophenanthren-2-yl)ethyl)-1,4-oxazepane-2-carboxamide] are 60 nM and 220 nM.
`N#CC(Cc1cc2c(cc1F)-c1ccc(F)cc1CO2)NC(=O)[C@@H]1CNCCCO1` (stereo partly drawn) [Compound 12, (2S)—N-(1-Cyano-2-(2,8-difluoro-6H-benzo[c]chromen-3-yl)ethyl)-1,4-oxazepane-2-carboxamide]: the concentration for half-maximal inhibition (IC50) was 16 nM at rhCatC and 23 nM against CatC.
The like results for `N#Cc1ccc2c(c1)COc1cc(CC(C#N)NC(=O)[C@@H]3CNCCCO3)ccc1-2` (stereo partly drawn) [Compound 13, (2S)—N-(1-Cyano-2-(8-cyano-6H-benzo[c]chromen-3-yl)ethyl)-1,4-oxazepane-2-carboxamide] were, in that order, 37 nM and 87.6 nM.
As for `N#C[C@H](Cc1ccc2c(c1)OCc1cc(F)c(F)cc1-2)NC(=O)[C@@H]1CNCCCO1` [Compound 16, (S)—N—((S)-1-Cyano-2-(8,9-difluoro-6H-benzo[c]chromen-3-yl)ethyl)-1,4-oxazepane-2-carboxamide], the values for the IC50 on rhCatC and against CatC were 91 nM and 186 nM, respectively.
The like results for `N#C[C@H](Cc1ccc2c(c1)OCc1cc(F)c(F)cc1-2)NC(=O)C1(N)CCOCC1` [Compound 17, (S)-4-Amino-N-(1-cyano-2-(8,9-difluoro-6H-benzo[c]chromen-3-yl)ethyl)tetrahydro-2H-pyran-4-carboxamide] were, in that order, 5.7 nM and 6.2 nM.
In the same order, the values of `N#Cc1cc2c(cn1)-c1cc(F)c(CC(C#N)NC(=O)[C@@H]3CNCCCO3)cc1OC2` (stereo partly drawn) [Compound 18, (2S)—N-(1-Cyano-2-(3-cyano-9-fluoro-5H-chromeno[4,3-c]pyridin-8-yl)ethyl)-1,4-oxazepane-2-carboxamide] are 49 nM and 29.5 nM.
The like results for `N#C[C@H](Cc1cc2c(cc1F)-c1ccc(F)cc1CO2)NC(=O)[C@@H]1CNCCCO1` [Compound 20, (S)—N—((S)-1-Cyano-2-(2,8-difluoro-6H-benzo[c]chromen-3-yl)ethyl)-1,4-oxazepane-2-carboxamide] were, in that order, 11 nM and 7.8 nM.
The compound `N#Cc1ccc2c(c1)COc1cc(C[C@@H](C#N)NC(=O)[C@@H]3CNCCCO3)c(Cl)cc1-2` [Compound 21, (S)—N—((S)-2-(2-Chloro-8-cyano-6H-benzo[c]chromen-3-yl)-1-cyanoethyl)-1,4-oxazepane-2-carboxamide] displayed an IC50 on CatC of 24.6 nM.
With `N#CC(Cc1ccc2c(c1)OCc1cc(F)ccc1-2)NC(=O)C1(N)CCOCC1` (centres unmarked) [Compound 22, 4-Amino-N-(1-cyano-2-(8-fluoro-6H-benzo[c]chromen-3-yl)ethyl)tetrahydro-2H-pyran-4-carboxamide formate], the IC50 came out at 3.2 nM on rhCatC and 5.5 nM on CatC.
Take `N#CC(Cc1cc2c(cc1F)-c1ccc(F)cc1CO2)NC(=O)C1(N)CCOCC1` (centres unmarked) [Compound 24, 4-Amino-N-(1-cyano-2-(2,8-difluoro-6H-benzo[c]chromen-3-yl)ethyl)tetrahydro-2H-pyran-4-carboxamide]: the IC50 is 2.7 nM on rhCatC and 4.3 nM against CatC.
The like results for `N#Cc1ccc2c(c1)COc1cc(CC(C#N)NC(=O)C3(N)CCOCC3)ccc1-2` (centres unmarked) [Compound 25, 4-Amino-N-(1-cyano-2-(8-cyano-6H-benzo[c]chromen-3-yl)ethyl)tetrahydro-2H-pyran-4-carboxamide] were, in that order, 3.1 nM and 5.52 nM.
Turning to `N#Cc1ccc2c(c1)COc1cc(C[C@@H](C#N)NC(=O)[C@@H]3C[C@@H]4CCC[C@@H]4N3)c(F)cc1-2` [Compound 26, (2S,3aS,6aS)—N—((S)-1-Cyano-2-(8-cyano-2-fluoro-6H-benzo[c]chromen-3-yl)ethyl)octahydrocyclopenta[b]pyrrole-2-carboxamide], the IC50 came out at 8.9 nM on rhCatC and 6.7 nM on CatC (setting [1]).
`N#CC(Cc1ccc2c(c1)OCc1ccc(C3COC3)cc1-2)NC(=O)[C@@H]1CNCCCO1` (stereo partly drawn) [Compound 28, (2S)—N-(1-Cyano-2-(9-(oxetan-3-yl)-6H-benzo[c]chromen-3-yl)ethyl)-1,4-oxazepane-2-carboxamide]: on CatC, half-maximal inhibition (IC50) required 50.1 nM.
Consider `CS(=O)(=O)c1ccc2c(c1)COc1cc(CC(C#N)NC(=O)[C@@H]3CNCCCO3)c(F)cc1-2` (stereo partly drawn) [Compound 29, (2S)—N-(1-Cyano-2-(2-fluoro-8-(methylsulfonyl)-6H-benzo[c]chromen-3-yl)ethyl)-1,4-oxazepane-2-carboxamide], for which the figures for the IC50 on rhCatC and at CatC were 17.1 nM and 36.8 nM, respectively.
The like results for `CS(=O)(=O)c1ccc2c(c1)COc1cc(C[C@@H](C#N)NC(=O)[C@@H]3CNCCCO3)c(F)cc1-2` [Compound 30, (S)—N—((S)-1-Cyano-2-(2-fluoro-8-(methylsulfonyl)-6H-benzo[c]chromen-3-yl)ethyl)-1,4-oxazepane-2-carboxamide] were, in that order, 10 nM and 9.6 nM.
`N#Cc1ccc2c(c1)-c1cc(F)c(CC(C#N)NC(=O)[C@@H]3CNCCCO3)cc1OC2` (stereo partly drawn) [Compound 31, (2S)—N-(1-Cyano-2-(9-cyano-2-fluoro-6H-benzo[c]chromen-3-yl)ethyl)-1,4-oxazepane-2-carboxamide]: the IC50 on CatC was 38.4 nM.
As for `N#CC(Cc1cc2c(cc1F)-c1ccc(S(=O)(=O)N3CCC3)cc1CO2)NC(=O)[C@@H]1CNCCCO1` (stereo partly drawn) [Compound 35, (2S)—N-(2-(8-(Azetidin-1-ylsulfonyl)-2-fluoro-6H-benzo[c]chromen-3-yl)-1-cyanoethyl)-1,4-oxazepane-2-carboxamide], the IC50 at rhCatC worked out at 15 nM; at CatC (setting [1]) it was 37.9 nM.
The like results for `N#CC(Cc1ccc2c(c1)OCCc1cc(F)ccc1-2)NC(=O)C1(N)CCOCC1` (centres unmarked) [Compound 36, 4-Amino-N-(1-cyano-2-(9-fluoro-6,7-dihydrodibenzo[b,d]oxepin-3-yl)ethyl)tetrahydro-2H-pyran-4-carboxamide] were, in that order, 7.1 nM and 23.7 nM.
In the same order, the values of `N#CC(Cc1ccc2c(c1)COCc1cc(F)ccc1-2)NC(=O)C1(N)CCOCC1` (centres unmarked) [Compound 37, 4-Amino-N-(1-cyano-2-(9-fluoro-5,7-dihydrodibenzo[c,e]oxepin-3-yl)ethyl)tetrahydro-2H-pyran-4-carboxamide] are 14 nM and 8.6 nM.
The like results for `CN1Cc2cc(F)ccc2-c2ccc(C[C@@H](C#N)NC(=O)C3(N)CCOCC3)cc2C1=O` [Compound 40, (S)-4-Amino-N-(1-cyano-2-(9-fluoro-6-methyl-5-oxo-6,7-dihydro-5H-dibenzo[c,e]azepin-3-yl)ethyl)tetrahydro-2H-pyran-4-carboxamide] were, in that order, 3.7 nM and 10.3 nM.
As to `CN1Cc2cc(C#N)ccc2-c2cc(F)c(C[C@@H](C#N)NC(=O)[C@@H]3CNCCCO3)cc2C1=O` [Compound 41, (S)—N—((S)-1-Cyano-2-(9-cyano-2-fluoro-6-methyl-5-oxo-6,7-dihydro-5H-dibenzo[c,e]azepin-3-yl)ethyl)-1,4-oxazepane-2-carboxamide], the half-inhibitory concentration (IC50) was 30.5 nM at rhCatC and 117 nM at CatC (setting [1]).
On to `N#C[C@H](Cc1ccc2c(c1)CCN(C(=O)c1ccc(F)cc1)C2)NC(=O)C1(N)CCOCC1` [Compound 56, (S)-4-Amino-N-(1-cyano-2-(2-(4-fluorobenzoyl)-1,2,3,4-tetrahydroisoquinolin-6-yl)ethyl)tetrahydro-2H-pyran-4-carboxamide], for which the IC50 at rhCatC came out at 37 nM.
Still for that read-out and setting: the same measure for `N#C[C@H](Cc1ccc2c(c1)CCN(c1ccc(F)cc1)C2)NC(=O)C1(N)CCOCC1` [Compound 57, (S)-4-Amino-N-(1-cyano-2-(2-(4-fluorophenyl)-1,2,3,4-tetrahydroisoquinolin-6-yl)ethyl)tetrahydro-2H-pyran-4-carboxamide]: 48 nM.
For the compound `N#C[C@H](Cc1ccc2c(c1)CC(=O)N(c1ccc(F)cc1)C2)NC(=O)C1(N)CCCCC1` [Compound 58, (S)-1-Amino-N-(1-cyano-2-(2-(4-fluorophenyl)-3-oxo-1,2,3,4-tetrahydroisoquinolin-6-yl)ethyl)cyclohexane-1-carboxamide], on CatC (setting [1]), the IC50 is 99.3 nM.

The values above are taken from patent US20240083888A1, “SMALL MOLECULE INHIBITOR FOR CATHEPSIN C AND MEDICINAL USE THEREOF” (REISTONE BIOPHARMA COMPANY LIMITED, priority 2020, published 2024).
